Where “and” joins values, the source holds several entries; their conditions need not be identical. Equal values may be shown once. Where a name gives a salt, the structure may show the parent alone. Read-outs that look alike come from different tables or passages of the source.
What was measured:
[1] = molecular target: T1, cloned human δ opioid receptor (Homo sapiens, UniProt P41143); test: Receptor binding, [3H]diprenorphine displacement, delta opioid receptor
T1 construct: expressed in transfected cells

[2] = molecular target: T2, cloned human μ opioid receptor (Homo sapiens, UniProt P35372); test: Receptor binding, [3H]diprenorphine displacement, mu opioid receptor; conditions: for Ki: [3H]diprenorphine, cloned human mu opioid receptor; for DOR/MOR Ratio: ratio of DOR Ki to MOR Ki
T2 construct: expressed in transfected cells

[3] = Rat PK; format: in vivo; conditions: rats; for bioavailability: male, Sprague-Dawley, rat, plasma, read-out: oral bioavailability (F)
Description: Jugular vein cannulated (JVC) male Sprague-Dawley (SD) rats (Charles River, Raleigh, N.C.) were housed individually in polycarbonate cages on alpha-dri bedding in an environmentally controlled room with a 12 hour light-dark cycle. Rats were allowed to acclimate for 3-5 days prior to the study. Animals were fasted overnight prior to drug administration and were fed after the 4 h blood collection.
The suspension used for PO administration was prepared at a nominal concentration of 2 mg/mL of test agent in 0.5% methylcellulose with 0.1% Tween®80.
Two groups of three JVC rats each received a single PO dose of 10 mg/kg. The PO dose was administered by oral gavage in a dosing volume of 5 mL/kg. Blood samples (0.6 mL) were collected via jugular vein cannula at predose, 15 and 30 minutes and 1, 2, 4, 6, 8 and 24 h postdose in EDTA-containing tubes. Plasma was obtained by centrifugation at 3000 rpm for 15 minutes. The samples were stored at −20° C. until analysis.
Plasma aliquots were deproteinized with internal standard solution in acetonitrile. The samples were vortexed, centrifuged and an aliquot of the supernatant was mixed with water. The diluted aliquot was then analyzed.
(§1) Plasma concentrations were determined by high performance liquid chromatography with tandem mass spectrometric detection (LC/MS/MS) after protein precipitation.
Model-independent analyses were performed to evaluate the pharmacokinetics. The area under the concentration-time curve (AUC) and the area under the first moment curve (AUMC) were calculated from zero to 6 or 8 hours post-dose using the linear trapezoidal method with extrapolation to infinity. The terminal elimination rate constant (kel) and half-life (t1/2) were calculated by linear least-squares regression of log-transformed concentration-time data. Systemic plasma clearance (CLs) was computed from Dose/AUC. Volume of distribution at steady state (Vdss) was calculated from Dose·AUMC/AUC^2. WinNonlin® Professional software (Pharsight Corporation) was used to generate all pharmacokinetic data.

[4] = molecular target: T3, cloned human κ opioid receptor (Homo sapiens, UniProt P41145); test: Receptor binding, [3H]diprenorphine displacement, kappa opioid receptor
T3 construct: expressed in transfected cells

[5] = test system: morphine-slowed gastrointestinal transit (GIT); test: Mouse Gastrointestinal Transit (GIT) Assay, antagonism of the anti-transit effect of morphine; format: in vivo, mice; conditions: for recovery of the pre-opioid treatment efficacy of GIT: one hour after a 3 mg/kg dose, morphine 3 mg/kg s.c.
Description: Male Swiss-Webster mice (25-30 g) obtained from Ace Animals (Boyertown, Pa.) were used for all experiments. Mice were housed 4/cage in polycarbonate cages with food and water available ad libitum. Mice were on a 12 hours light:dark schedule with lights on at 6:30 a.m. All experiments were performed during the light cycle. Mice were fasted the night before the experiment, with water available ad libitum.
Compounds were administered in a volume of 0.1 ml/10 g of body weight. Morphine (3 mg/kg) or vehicle (0.9% saline) was administered s.c. 35 min to induce slowed GIT, prior to determination of GIT. Ten minutes after the morphine treatment, mice were administered 0.2 ml of a charcoal meal orally. The charcoal meal consisted of a slurry of charcoal, flour, and water in the following ratio (1:2:8, w:w:v). Twenty-five minutes after receiving the charcoal meal, the mice were euthanized with CO2 and GIT was determined.
GIT is expressed as % GIT by the following formula: […]
For each test agent, a value for % Antagonism (% A) was determined for the 2 and 6 hr antagonist pretreatment. Using the mean % GIT for each treatment group, % A was calculated using the following formula: […]

[6] = Dog PK; format: in vivo; conditions: for AUC0-t: 6 mg/kg, individual dogs; for bioavailability: single PO dose of 6 mg/kg, read-out: oral bioavailability (F); for AUC: mean of three dogs
Description: The PO dose formulations were prepared on the day of dosing by dissolving 33.16 mg of test material in 60 mL of sterile water to achieve a concentration of 0.5526 mg/mL total compound (0.5 mg/mL test compound). The dosing solution was vortexed to ensure homogeneity and dissolution.
The dose formulation was administered via oral gavage per facility SOPs. Each dog received a single PO dose of 6 mg/kg.
(§2) All blood samples were collected from a peripheral vessel. Approximately 0.3 mL blood was collected at each time point. All blood samples were placed on wet ice until processed for plasma.
Blood samples were processed for plasma by centrifugation at approximately 5° C. Plasma samples were stored in polypropylene tubes, quick frozen over dry ice and kept at −70±10° C. until LC/MSMS analysis.
as §1
(§3) Plasma concentration versus time data was analyzed by non-compartmental approaches using the WinNonlin software program (version 5.0.1, Pharsight, Mountain View, Calif.).

[7] = Primate PK; format: in vivo, monkey; conditions: for Cmax / AUC0-t: 1 mg/kg; for bioavailability: single PO dose of 1 mg/kg, read-out: oral bioavailability (F)
Description: The dose formulations were prepared on the day of dosing by dissolving 33.16 mg of test material in 60 mL of sterile water to achieve a concentration of 0.5526 mg/mL total compound (0.5 mg/mL test compound). The dosing solution was vortexed to ensure homogeneity and dissolution.
The dose formulation was administered via oral gavage per facility SOPs. Each monkey received a single PO dose of 1 mg/kg as a 0.5% MC suspension.
as §2
Blood samples were processed for plasma by centrifugation at approximately 5° C. Plasma samples were be stored in polypropylene tubes, quick frozen over dry ice and kept at −70±10° C. until LC/MSMS analysis.
as §1, §3

[8] = [3H]diprenorphine, cloned human kappa opioid receptor, read-out: KOR Ki
[9] = individual monkeys, PO 1 mg/kg, lithium salt

T2 sequence (P35372 whole entry): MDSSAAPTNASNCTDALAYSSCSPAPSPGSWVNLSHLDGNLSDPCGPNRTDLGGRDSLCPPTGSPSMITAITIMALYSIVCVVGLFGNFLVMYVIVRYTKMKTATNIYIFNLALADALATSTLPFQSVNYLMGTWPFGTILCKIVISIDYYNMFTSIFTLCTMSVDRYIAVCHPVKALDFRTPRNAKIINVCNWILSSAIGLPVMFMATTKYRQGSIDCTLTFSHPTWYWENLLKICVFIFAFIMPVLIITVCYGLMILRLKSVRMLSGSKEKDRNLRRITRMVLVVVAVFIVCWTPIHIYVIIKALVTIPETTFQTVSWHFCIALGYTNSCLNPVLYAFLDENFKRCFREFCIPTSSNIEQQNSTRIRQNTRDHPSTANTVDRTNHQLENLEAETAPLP
T3 sequence (P41145 whole entry): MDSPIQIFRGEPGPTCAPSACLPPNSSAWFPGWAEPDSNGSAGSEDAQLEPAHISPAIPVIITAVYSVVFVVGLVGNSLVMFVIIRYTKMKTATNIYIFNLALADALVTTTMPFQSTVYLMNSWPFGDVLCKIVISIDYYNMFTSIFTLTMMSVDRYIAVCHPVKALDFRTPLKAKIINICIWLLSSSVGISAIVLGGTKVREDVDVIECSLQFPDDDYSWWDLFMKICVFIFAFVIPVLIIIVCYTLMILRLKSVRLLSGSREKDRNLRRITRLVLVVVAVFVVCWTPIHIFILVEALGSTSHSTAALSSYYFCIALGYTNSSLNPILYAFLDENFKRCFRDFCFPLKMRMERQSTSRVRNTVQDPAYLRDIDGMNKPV
T1 sequence (P41143 whole entry): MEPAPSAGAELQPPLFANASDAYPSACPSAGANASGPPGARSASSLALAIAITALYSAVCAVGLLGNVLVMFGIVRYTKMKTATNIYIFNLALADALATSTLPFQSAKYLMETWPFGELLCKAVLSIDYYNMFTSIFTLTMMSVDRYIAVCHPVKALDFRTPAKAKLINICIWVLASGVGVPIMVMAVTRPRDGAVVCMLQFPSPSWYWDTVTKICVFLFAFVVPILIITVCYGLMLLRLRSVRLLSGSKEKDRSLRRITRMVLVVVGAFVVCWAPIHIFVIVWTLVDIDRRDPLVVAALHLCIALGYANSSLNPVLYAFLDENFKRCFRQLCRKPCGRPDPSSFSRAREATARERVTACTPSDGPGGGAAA

SMILES: C[C@H]1CN(C[C@H](Cc2ccccc2)C(=O)[O-])CC[C@@]1(C)c1cccc(C(N)=O)c1.[Na+] [Example 2, (S)-2-benzyl-3-((3R,4R)-4-(3-carbamoylphenyl)-3,4-dimethylpiperidin-1-yl)propanoic acid, sodium salt]
- Ki ([1]; DOR Ki): 0.308 µM
- Ki ([2]; MOR Ki): 0.0173 µM
- DOR/MOR Ratio [2]: 18
- bioavailability ([3]; single PO dose of 10 mg/kg): 11%

SMILES: C[C@H]1CN(C[C@H](Cc2ccccc2)C(=O)O)CC[C@@]1(C)c1cccc(C(N)=O)c1.O=C(O)C(F)(F)F [Example 3, (S)-2-benzyl-3-((3R,4R)-4-(3-carbamoylphenyl)-3,4-dimethylpiperidin-1-yl)propanoic acid, trifluoroacetate salt]
- Ki ([1]; DOR Ki): 0.397 µM
- Ki ([2]; MOR Ki): 0.0124 µM
- DOR/MOR Ratio [2]: 32
- bioavailability ([3]; single PO dose of 10 mg/kg): 8%
- improvement in oral bioavailability as compared to Example C-2 ([3]; PO 10 mg/kg): approximately 8 fold

SMILES: C[C@H]1CN(C[C@H](Cc2ccccc2)C(=O)O)CC[C@@]1(C)c1cccc(C(N)=O)c1 [Example 4, (S)-2-Benzyl-3-((3R,4R)-4-(3-carbamoylphenyl)-3,4-dimethylpiperidin-1-yl)propanoic acid]
- Ki ([1]; DOR Ki): 0.46 µM
- Ki ([2]; MOR Ki): 0.014 µM
- DOR/MOR Ratio [2]: 33

SMILES: C[C@H]1CN(C[C@H](Cc2ccccc2)C(=O)O)CC[C@@]1(C)c1cccc(C(N)=O)c1 [Example 6, (S)-2-benzyl-3-((3R,4R)-4-(3-carbamoylphenyl)-3,4-dimethylpiperidin-1-yl)propanoic acid, succinic acid salt]
- Ki ([1]; DOR Ki): 0.527 µM
- Ki ([2]; MOR Ki): 0.0181 µM

SMILES: C[C@H]1CN(C[C@@H](Cc2ccccc2)C(=O)NCC(=O)O)CC[C@@]1(C)c1cccc(C(N)=O)c1.O=C(O)C(F)(F)F [Example C-2, [[2(R)-[[4(R)-(3-Amidophenyl)-3(R),4-dimethyl-1-piperidinyl]methyl]-1-oxo-3-phenylpropyl]amino]acetic acid, trifluoromethylacetate salt, reference compound]
- Ki ([1]; read-out: DOR Ki): 0.085 µM
- times more potent than Example 1 as an MOR antagonist in the opioid receptor binding assay ([2]; C-2 versus Example 1, Table I): 4.3 times
- Ki ([2]; read-out: MOR Ki): 0.0026 µM
- DOR/MOR Ratio [2]: 33
- Ki [4, 8]: 0.66 µM
- oral bioavailability (F) ([3]; single PO dose of 10 mg/kg): ~1%
- recovery of the pre-opioid treatment efficacy of GIT ([5]; mice): 50%
- AUC values (h * percent antagonism (0-6 h)) ([5]; mouse, in vivo, po, 3 mg/kg): 191.5 h * percent antagonism

SMILES: CC1CN(CC(Cc2ccccc2)C(=O)NCC(=O)O)CCC1(C)c1cccc(C(N)=O)c1 [Example C-3, [[2(R)-[[4(R)-(3-Amidophenyl)-3(R),4-dimethyl-1-piperidinyl]methyl]-1-oxo-3-phenylpropyl]amino]acetic acid, sodium salt, reference compound]
- Ki ([1]; DOR Ki): 0.098 µM
- Ki ([2]; MOR Ki): 0.0029 µM
- DOR/MOR Ratio [2]: 34
- Ki [4, 8]: 0.93 µM
- AUC0-t ([6]; dog, plasma, po, PO 6 mg/kg, read-out: AUC0-t): 81 ng·h/mL
- bioavailability ([6]; dog, plasma, dogs): 11%
- AUC ([6]; dog, plasma, PO 6 mg/kg): 63 ± 16 ng·h/mL
- AUC0-t ([6]; PO 6 mg/kg, sodium salt): 54 ng·h/mL and 53 ng·h/mL
- Cmax ([7]; individual monkeys, PO 1 mg/kg, sodium salt): 1.81 ng/mL and 1.74 ng/mL
- Cmax ([7]; monkey, plasma, po, individual monkeys, PO 1 mg/kg, read-out: Cmax): 1.7 ng/mL
- Cmax ([7]; monkey, plasma, po, mean of three monkeys, PO 1 mg/kg, read-out: Mean Cmax ± SD): 1.75 ± 0.06 ng/mL
- bioavailability ([7]; monkey, plasma, monkeys): < 2%

SMILES: C[C@H]1CN(C[C@H](Cc2ccccc2)C(=O)[O-])CC[C@@]1(C)c1cccc(C(N)=O)c1.[Li+] [Example 1, (S)-2-benzyl-3-((3R,4R)-4-(3-carbamoylphenyl)-3,4-dimethylpiperidin-1-yl)propanoic acid, lithium salt]
- Ki ([1]; DOR Ki): 0.34 µM
- Ki ([2]; MOR Ki): 0.0112 µM
- DOR/MOR Ratio [2]: 30
- AUC values (h * percent antagonism (0-6 h)) ([5]; mice, 3 mg/kg orally, 0-6 h): 408.8 h * percent antagonism
- recovery of the pre-opioid treatment efficacy of GIT ([5]; mice): ~90%
- AUC value (GIT antagonism) times greater than that of Example C-2 ([5]; mouse, in vivo): 2.1 times
- AUC0-t ([6]; dog, in vivo, po, PO 6 mg/kg, read-out: AUC0-t): 183 ng·h/mL
- bioavailability ([6]; dog, in vivo, dogs): 30%
- AUC ([6]; dog, in vivo, PO 6 mg/kg): 259 ± 81 ng·h/mL
- improvement in the mean AUC value as compared to Example C-3 ([6]; dogs, PO 6 mg/kg): approximately 4 fold
- increase in mean concentration in plasma as compared to C-3 ([6]; dogs, PO 6 mg/kg): approximately 3 fold
- AUC0-t ([6]; PO 6 mg/kg, lithium salt): 250 ng·h/mL and 344 ng·h/mL
- AUC0-t [7, 9]: 87 ng·h/mL and 132 ng·h/mL
- Cmax [7, 9]: 29.5 ng/mL and 20.8 ng/mL and 44.6 ng/mL
- AUC0-t ([7]; monkey, in vivo, po, individual monkeys, PO 1 mg/kg, read-out: AUC0-t): 103 ng·h/mL
- Cmax ([7]; monkey, in vivo, po, mean of three monkeys, PO 1 mg/kg, read-out: Mean Cmax ± SD): 32 ± 12 ng/mL
- Cmax ([7]; monkey, in vivo, po, monkeys, PO 1 mg/kg, mean ± SD, text of b284, read-out: Cmax): 32 ± 12 ng/mL
- bioavailability ([7]; monkey, in vivo, monkeys): 10%
- fold higher maximum plasma concentration (Cmax) as compared to Example C-3 ([7]; monkeys, PO 1 mg/kg): 18.3 fold

SMILES: C[C@H]1CN(C[C@H](Cc2ccccc2)C(=O)O)CC[C@@]1(C)c1cccc(C(N)=O)c1 [Example 5, (S)-2-benzyl-3-((3R,4R)-4-(3-carbamoylphenyl)-3,4-dimethylpiperidin-1-yl)propanoic acid, oxalic acid salt]
- Ki ([1]; DOR Ki): 0.31 µM
- Ki ([2]; MOR Ki): 0.0169 µM
- Ki [4]: > 10 µM
